Tests used:
Assay in all cases: relative viability (nuclei count vs DMSO), 5 days (fraction); higher = more cells survive
201T = tested on: 201T
Outline: (§1)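 Relative viability is defined as nuclei in treated wells over nuclei in vehicle wells. Duplicate plates were run and medians reported. Lung cancer cell lines in 1536-well plates were dosed by pin tool one day after seeding, with one drug or with a fixed anchor-drug dose plus five library-drug doses (not always all listed) in √10 steps, and nuclei were counted after 5 days.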

BEN = tested on: BEN
Outline: as §1

CAL-12T = tested on: CAL-12T
Outline: as §1

HCC-827 = tested on: HCC-827
Outline: as §1

LCLC-103H = tested on: LCLC-103H
Outline: as §1

LCLC-97TM1 = tested on: LCLC-97TM1
Outline: as §1

LXF-289 = tested on: LXF-289
Outline: as §1

NCI-H1395 = tested on: NCI-H1395
Outline: as §1

NCI-H1437 = tested on: NCI-H1437
Outline: as §1

NCI-H1792 = tested on: NCI-H1792
Outline: as §1

NCI-H1793 = tested on: NCI-H1793
Outline: as §1

NCI-H1944 = tested on: NCI-H1944
Outline: as §1

NCI-H2087 = tested on: NCI-H2087
Outline: as §1

NCI-H2405 = tested on: NCI-H2405
Outline: as §1

NCI-H3122 = tested on: NCI-H3122
Outline: as §1

NCI-H322M = tested on: NCI-H322M
Outline: as §1

NCI-H647 = tested on: NCI-H647
Outline: as §1

NCI-H727 = tested on: NCI-H727
Outline: as §1

RERF-LC-KJ = tested on: RERF-LC-KJ
Outline: as §1

For O=c1cc(N2CCOCC2)oc2c(-c3cccc4c3sc3ccccc34)cccc12 + NC(=O)Nc1cc(-c2cccc(F)c2)sc1C(=O)N[C@H]1CCCNC1 [AZD7762] (partner 0.2 µM), the relative viability (201T; first compound 0.01 µM) was 0.624, the relative viability (201T; first compound 0.03162 µM) was 0.619 and the relative viability (201T; first compound 0.1 µM) was 0.615. For the same compound, the relative viability (201T; first compound 0.3162 µM) was 0.585, the relative viability (201T; first compound 1 µM) was 0.583 and the relative viability (BEN; first compound 0.01 µM) was 0.576. It also gave a relative viability (BEN; first compound 0.03162 µM) of 0.86, a relative viability (BEN; first compound 0.1 µM) of 0.289 and a relative viability (BEN; first compound 0.3162 µM) of 0.735. The relative viability (BEN; first compound 1 µM) was 0.626, the relative viability (CAL-12T; first compound 0.01 µM) was 0.58 and the relative viability (CAL-12T; first compound 0.03162 µM) was 0.541. For the same compound, the relative viability (CAL-12T; first compound 0.1 µM) was 0.852, the relative viability (CAL-12T; first compound 0.3162 µM) was 0.676 and the relative viability (CAL-12T; first compound 1 µM) was 0.498. For the same compound, the relative viability (HCC-827; first compound 0.01 µM) was 0.26, the relative viability (HCC-827; first compound 0.03162 µM) was 0.179 and the relative viability (HCC-827; first compound 0.1 µM) was 0.133. For the same compound, the relative viability (HCC-827; first compound 0.3162 µM) was 0.184, the relative viability (HCC-827; first compound 1 µM) was 0.261 and the relative viability (LCLC-103H; first compound 0.01 µM) was 0.799. It also gave a relative viability (LCLC-103H; first compound 0.03162 µM) of 0.777, a relative viability (LCLC-103H; first compound 0.1 µM) of 0.804 and a relative viability (LCLC-103H; first compound 0.3162 µM) of 0.815. The relative viability (LCLC-103H; first compound 1 µM) was 0.688, the relative viability (LCLC-97TM1; first compound 0.01 µM) was 0.215 and the relative viability (LCLC-97TM1; first compound 0.03162 µM) was 0.353. For the same compound, the relative viability (LCLC-97TM1; first compound 0.1 µM) was 0.0724, the relative viability (LCLC-97TM1; first compound 0.3162 µM) was 0.349 and the relative viability (LCLC-97TM1; first compound 1 µM) was 0.22. For the same compound, the relative viability (LXF-289; first compound 0.01 µM) was 1.11, the relative viability (LXF-289; first compound 0.03162 µM) was 1.08 and the relative viability (LXF-289; first compound 0.1 µM) was 0.75. For the same compound, the relative viability (LXF-289; first compound 0.3162 µM) was 1.2, the relative viability (LXF-289; first compound 1 µM) was 1.21 and the relative viability (NCI-H1395; first compound 0.03162 µM) was 0.403. For the same compound, the relative viability (NCI-H1395; first compound 0.1 µM) was 0.357, the relative viability (NCI-H1395; first compound 0.3162 µM) was 0.428 and the relative viability (NCI-H1395; first compound 1 µM) was 0.372. For the same compound, the relative viability (NCI-H1437; first compound 0.01 µM) was 1.22, the relative viability (NCI-H1437; first compound 0.03162 µM) was 1.12 and the relative viability (NCI-H1437; first compound 0.1 µM) was 1.12. The relative viability (NCI-H1437; first compound 0.3162 µM) was 1.1, the relative viability (NCI-H1437; first compound 1 µM) was 1.04 and the relative viability (NCI-H1792; first compound 0.01 µM) was 0.75. The relative viability (NCI-H1792; first compound 0.03162 µM) was 0.682, the relative viability (NCI-H1792; first compound 0.3162 µM) was 0.673 and the relative viability (NCI-H1792; first compound 1 µM) was 0.733. The relative viability (NCI-H1793; first compound 0.01 µM) was 0.593, the relative viability (NCI-H1793; first compound 0.03162 µM) was 0.38 and the relative viability (NCI-H1793; first compound 0.1 µM) was 0.233. It also gave a relative viability (NCI-H1793; first compound 0.3162 µM) of 0.505, a relative viability (NCI-H1793; first compound 1 µM) of 0.464 and a relative viability (NCI-H1944; first compound 0.01 µM) of 0.541. It also gave a relative viability (NCI-H1944; first compound 0.03162 µM) of 0.527, a relative viability (NCI-H1944; first compound 0.1 µM) of 0.481 and a relative viability (NCI-H1944; first compound 0.3162 µM) of 0.528. For the same compound, the relative viability (NCI-H1944; first compound 1 µM) was 0.438, the relative viability (NCI-H2087; first compound 0.01 µM) was 1.37 and the relative viability (NCI-H2087; first compound 0.03162 µM) was 1.23. It also gave a relative viability (NCI-H2087; first compound 0.1 µM) of 1.44, a relative viability (NCI-H2087; first compound 0.3162 µM) of 1.31 and a relative viability (NCI-H2087; first compound 1 µM) of 1.36. The relative viability (NCI-H2405; first compound 0.01 µM) was 0.7, the relative viability (NCI-H2405; first compound 0.03162 µM) was 0.727 and the relative viability (NCI-H2405; first compound 0.1 µM) was 0.552. It also gave a relative viability (NCI-H2405; first compound 0.3162 µM) of 0.787, a relative viability (NCI-H2405; first compound 1 µM) of 0.827 and a relative viability (NCI-H3122; first compound 0.01 µM) of 1.01. For the same compound, the relative viability (NCI-H3122; first compound 0.03162 µM) was 0.976, the relative viability (NCI-H3122; first compound 0.1 µM) was 0.731 and the relative viability (NCI-H3122; first compound 0.3162 µM) was 0.99. It also gave a relative viability (NCI-H3122; first compound 1 µM) of 0.973, a relative viability (NCI-H322M; first compound 0.01 µM) of 0.578 and a relative viability (NCI-H322M; first compound 0.03162 µM) of 0.589. For the same compound, the relative viability (NCI-H322M; first compound 0.3162 µM) was 0.595, the relative viability (NCI-H322M; first compound 1 µM) was 0.581 and the relative viability (NCI-H647; first compound 0.01 µM) was 0.371. It also gave a relative viability (NCI-H647; first compound 0.03162 µM) of 0.486, a relative viability (NCI-H647; first compound 0.1 µM) of 0.0676 and a relative viability (NCI-H647; first compound 0.3162 µM) of 0.515. For the same compound, the relative viability (NCI-H647; first compound 1 µM) was 0.363, the relative viability (NCI-H727; first compound 0.01 µM) was 0.583 and the relative viability (NCI-H727; first compound 0.03162 µM) was 0.486. For the same compound, the relative viability (NCI-H727; first compound 0.1 µM) was 0.423, the relative viability (NCI-H727; first compound 0.3162 µM) was 0.596 and the relative viability (NCI-H727; first compound 1 µM) was 0.575. The relative viability (RERF-LC-KJ; first compound 0.01 µM) was 0.595, the relative viability (RERF-LC-KJ; first compound 0.03162 µM) was 0.951 and the relative viability (RERF-LC-KJ; first compound 0.1 µM) was 1.18. It also gave a relative viability (RERF-LC-KJ; first compound 0.3162 µM) of 0.994 and a relative viability (RERF-LC-KJ; first compound 1 µM) of 1.03.

— the supplement of paper PMC10307832
